This note sets out measurements from patent US11679107B2 (Eisai R&D Management Co., Ltd., priority 2018, dated 2023).

For orientation: IC50 means the concentration that gives 50% inhibition. As usually defined, the GI50 is the concentration at which growth is held to half of that of the control.

The target in assay [1] is T1, SF3b complexes (Homo sapiens, UniProt O75533+Q7RTV0).
T1 construct: endogenous in cells; host or cells: Nuclear extracts; A HeLa S3 extract preparation is described for the in vitro splicing assay
As to the kind of experiment: Scintillation proximity assay (SPA) with [3H]-labelled pladienolide probe. The format is binding. The conditions noted are these: SF3B1 (WT); geometric mean; read-out: SPA-ATS GMean IC50 (nM) SF3B1 (WT). A digest of the protocol:
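SF3b complexes captured from nuclear extracts on anti-SF3B1 antibody SPA beads; test compounds pre-incubated 30 min before 2.5 nM [3H]-pladienolide probe added, then 30 min incubation. Bound probe read by scintillation; values from non-linear regression of concentration–response curves.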

Assay [2] relates to Ad2 variant pre-mRNAs spliced in HeLa S3 nuclear extracts. As to the kind of experiment: In vitro splicing assay (IVS), RT-qPCR of spliced product. Conditions: geometric mean. It counts as biochemical. An outline of the steps: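 Ad2 variant pre-mRNA (2 ng) with FTZΔi control RNA in HeLa S3 nuclear extract (8 μg) was pre-incubated with compound or DMSO for 15 min at 30 °C. Splicing ran 90 min at 30 °C after adding 0.5 mM ATP, creatine phosphate and MgCl2. Spliced product was quantified by TaqMan RT-qPCR, normalized to DMSO, and curve-fitted.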
(In qPCR the cycle at which signal appears reflects the starting amount.)

For assay [3], the system named is NCI-H1568 cells (high MCL1). As to the kind of experiment: Cell proliferation and viability, CellTiter-Glo, 72 hours. The format is cell-based. Conditions: NCIH1568.1 cells, 72 h; for GI50: NCI-H1568, read-out: CTGlo-ATS GMean GI50 (nM) 72 h NCIH1568.1, geometric mean; for CTGlo-ATS Mean MinResponse % 72 h NCIH1568.1: −100% cidal, 0% static, 100% maximal growth. A digest of the protocol:
(§1)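 Cells grown in RPMI-1640 with 10% FBS (Panc 05.04 with added insulin, 15% FBS total) were exposed to an 11-point half-log dilution, typically 10 μM–100 pM, at 0.1% DMSO for 72 h at 37 °C. ATP content was read by CellTiter-Glo luminescence. Percent inhibition was set against a time-zero plate and DMSO vehicle wells, on a −100% (cidal) to 100% (uninhibited growth) scale.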

The test system of assay [4] is Panc 05.04 cells (SF3b K700E mutant). The assay is described as above. Conditions: PANC0504.1 cells, 72 h; for CTGlo-ATS Mean MinResponse % 72 h PANC0504.1: −100% cidal, 0% static, 100% maximal growth; for GI50: Panc 05.04, read-out: CTGlo-ATS GMean GI50 (nM) 72 h PANC0504.1, geometric mean. The format is cell-based. A digest of the protocol:
as §1

[5] abbreviates: Ad2.1 pre-mRNA substrate, read-out: qPCR-IVS-ATS GMean IC50 (nM) Ad2.1.
[6] abbreviates: Ad2.2 pre-mRNA substrate, read-out: qPCR-IVS-ATS GMean IC50 (nM) Ad2.2.

Like-named read-outs stand apart in the source and are kept apart here.

With `COCCC(=O)N1CCN(c2cc(F)cc(/C=C(\C)[C@H]3OC(=O)C[C@H](O)CC[C@H](C)[C@@H](OC(=O)N4CCN(C)CC4)/C=C/[C@@H]3C)c2)CC1` [Compound 134], the IC50 was 2.06 nM in assay [1], 26.5 nM in assay [2] (setting [5]) and 13.3 nM in assay [2] (setting [6]). Besides, the GI50 turned out to be 3.92 nM in assay [3] and 4.11 nM in assay [4]. Further, in assay [3], the “CTGlo-ATS Mean MinResponse % 72 h NCIH1568.1” value is reported as −79.743%. Also, the “CTGlo-ATS Mean MinResponse % 72 h PANC0504.1” value in assay [4] is reported as −92.570%.

For the compound `C/C(=C\c1cc(F)c2cnn(CC#N)c2c1)[C@H]1OC(=O)C[C@H](O)CC[C@H](C)[C@@H](OC(=O)N2CCN(C)CC2)/C=C/[C@@H]1C` [Compound 131], the IC50 came out at 4.04 nM in assay [1], 357 nM in assay [2] (setting [5]) and 45.8 nM in assay [2] (setting [6]). The values for the GI50 in assay [3] and in assay [4] were 19.2 nM and 27.1 nM, respectively. Moreover, in assay [3], the “CTGlo-ATS Mean MinResponse % 72 h NCIH1568.1” value is recorded as −65.430%. In addition, the “CTGlo-ATS Mean MinResponse % 72 h PANC0504.1” value in assay [4] is given as −94.995%.

Regarding `C/C(=C\c1cc(S(=O)(=O)N2CCC(O)CC2)ccc1F)[C@H]1OC(=O)C[C@H](O)CC[C@H](C)[C@@H](OC(=O)N2CCN(C)CC2)/C=C/[C@@H]1C` [Compound 91, [(2S,3S,4E,6R,7S,10R)-2-[(E)-1-[2-fluoro-5-(4-hydroxypiperidin-l-yl)sulfonylphenyl]prop-1-en-2-yl]-10-hydroxy-3,7-dimethyl-12-oxo-1-oxacyclododec-4-en-6-yl] 4-methylpiperazine-1-carboxylate], the IC50 in assay [1] is 6.04 nM; in assay [2] (setting [5]), 14.7 nM; in assay [2] (setting [6]) it was 18.9 nM. In addition, the 50% growth inhibitory concentration (GI50) in assay [3] came to 6.86 nM; in assay [4], 4.64 nM. Further, the “CTGlo-ATS Mean MinResponse % 72 h NCIH1568.1” value in assay [3] is −64.491%. Also, in assay [4], the “CTGlo-ATS Mean MinResponse % 72 h PANC0504.1” value is −90.776%.

In the case of `C/C(=C\c1cc(F)cc(N2CCOCC2)c1)[C@H]1OC(=O)C[C@@H](O)CC[C@@](C)(O)[C@@H](OC(=O)N2CCC(N3CCCCC3)CC2)/C=C/[C@@H]1C` [Compound 63], the IC50 is 12.3 nM in assay [1], 18800 nM in assay [2] (setting [5]) and 52 nM in assay [2] (setting [6]). In addition, the figures for the concentration for 50% growth inhibition (GI50) in assay [3] and in assay [4] were 39.3 nM and 41.2 nM, respectively. For the same compound, the “CTGlo-ATS Mean MinResponse % 72 h NCIH1568.1” value in assay [3] is listed as −50.769%. Also, in assay [4], the “CTGlo-ATS Mean MinResponse % 72 h PANC0504.1” value was −96.440%.

As to `C/C(=C\c1cc(F)cc(N2CCCC2=O)c1)[C@H]1OC(=O)C[C@H](O)CC[C@H](C)[C@@H](OC(=O)N2CCN(C)CC2)/C=C/[C@@H]1C` [Compound 42], the IC50 in assay [1] turned out to be 2.92 nM; in assay [2] (setting [5]), 330 nM; in assay [2] (setting [6]), 12.6 nM. Moreover, the figures for the GI50 in assay [3] and in assay [4] were 6.13 nM and 4.76 nM, respectively. Moreover, the “CTGlo-ATS Mean MinResponse % 72 h NCIH1568.1” value in assay [3] is −63.030%. In assay [4], the “CTGlo-ATS Mean MinResponse % 72 h PANC0504.1” value is −86.319%.

As for `C/C(=C\c1cc(F)cc(N2CCN(CC(=O)C3CC3)CC2)c1)[C@H]1OC(=O)C[C@H](O)CC[C@H](C)[C@@H](OC(=O)N2CCN(C)CC2)/C=C/[C@@H]1C` [Compound 84], the IC50 stood at 2.75 nM in assay [1], 29.6 nM in assay [2] (setting [5]) and 22.1 nM in assay [2] (setting [6]). Besides, the GI50 in assay [3] was 4.3 nM; in assay [4], 5.61 nM. Further, the “CTGlo-ATS Mean MinResponse % 72 h NCIH1568.1” value in assay [3] was −80.428%. In addition, the “CTGlo-ATS Mean MinResponse % 72 h PANC0504.1” value in assay [4] is on record as −89.010%.

On to `C/C(=C\c1cncc(Cl)c1)[C@H]1OC(=O)C[C@H](O)CC[C@H](C)[C@@H](OC(=O)N2CCN(C)CC2)/C=C/[C@@H]1C` [Compound 46], for which the IC50 in assay [1] is 12.2 nM; in assay [2] (setting [5]), greater than 25000 nM; in assay [2] (setting [6]), 114 nM. Besides, the GI50 worked out at 78.4 nM in assay [3] and 40 nM in assay [4]. In assay [3], the “CTGlo-ATS Mean MinResponse % 72 h NCIH1568.1” value is −10.684%. The “CTGlo-ATS Mean MinResponse % 72 h PANC0504.1” value in assay [4] is on record as 0.031%.
